In patent US7629373B2, “Mitotic kinesin inhibitors” (Merck & Co. Inc., priority 2005, dated 2009) one finds IC50 data, which are given here for two compounds.

Some results are limits rather than exact numbers.

The target of the test is T1, human KSP motor domain (KSP(367H)) (Homo sapiens, UniProt P52732).
T1 construct: were used to amplify the motor domain and the neck linker region; made in house; host or cells: E. coli BL21 (DE3), pRSETa
T1 sequence (P52732 18-359 limits assumed): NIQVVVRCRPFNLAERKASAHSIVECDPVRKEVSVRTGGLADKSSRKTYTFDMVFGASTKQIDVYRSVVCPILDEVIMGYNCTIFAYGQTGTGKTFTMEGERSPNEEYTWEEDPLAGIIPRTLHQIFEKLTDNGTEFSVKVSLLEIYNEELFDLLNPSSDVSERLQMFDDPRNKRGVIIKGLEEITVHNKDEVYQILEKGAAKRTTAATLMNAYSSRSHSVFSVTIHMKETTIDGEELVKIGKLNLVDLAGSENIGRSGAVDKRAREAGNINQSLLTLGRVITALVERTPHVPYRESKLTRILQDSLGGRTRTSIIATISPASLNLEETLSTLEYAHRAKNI
The test is described as follows: Kinesin ATPase In Vitro Assay. The conditions noted are these: kinesin motor domain with microtubules, 1 mM ATP, 23° C. Type of test: biochemical. An excerpt:
I. Kinesin ATPase In Vitro Assay
Cloning and Expression of Human Poly-Histidine Tagged KSP Motor Domain (KSP(367H))
Plasmids for the expression of the human KSP motor domain construct were cloned by PCR using a pBluescript full length human KSP construct (Blangy et al., Cell, vol. 83, pp 1159-1169, 1995) as a template. The N-terminal primer 5′-[…] (SEQ. ID. NO.: 1) and the C-terminal primer 5′-[…] […] (SEQ. ID. NO.: 2) were used to amplify the motor domain and the neck linker region. The PCR products were digested with AseI and XhoI, ligated into the NdeI/XhoI digestion product of pRSETa (Invitrogen) and transformed into E. coli BL21 (DE3).
Cells were grown at 37° C. to an OD600 of 0.5. […]
The kinesin motor domain is incubated with microtubules, 1 mM ATP (1:1 MgCl2: Na-ATP), and compound at 23° C. in buffer containing 80 mM K-HEPES (pH 7.0), 1 mM EGTA, 1 mM DTT, 1 mM MgCl2, and 50 mM KCl. […] Free phosphate from the ATP hydrolysis reaction is measured via a quinaldine red/ammonium molybdate assay by adding a […] of quench C (e.g., to a mixture of 40 μl reaction volume+40 μl stop buffer is then added 120 μl quench C). […] Quench C is a 2:1 ratio of quench A:quench B The reaction is incubated for 5-10 minutes at 23° C., and the absorbance of the phospho-molybdate complex is measured at 540 nm.

As for `CC(=O)N1N=C(c2cc(F)ccc2F)C[C@@]1(CC[C@H](N)CF)c1ccccc1` [Compound 2-8, [(1S)-3-[(5S)-1-Acetyl-3-(2,5-difluorophenyl)-5-phenyl-4,5-dihydro-1H-pyrazol-5-yl]-1-(fluoromethyl)propyl]amine], the IC50 was at most 50 µM.
The same measure for `CC(=O)N1N=C(c2cc(F)ccc2F)C[C@@]1(CC[C@@H](N)CF)c1ccccc1` [Compound 2-7, [(1R)-3-[(5S)-1-Acetyl-3-(2,5-difluorophenyl)-5-phenyl-4,5′-dihydro-1H-pyrazol-5-yl]-1-(fluoromethyl)propyl]amine]: at most 50 µM.

The IC50 is the midpoint of a concentration-inhibition curve. A low value points to higher potency.
